{"source": "paper PMC8129716", "about": "(CPT: Pharmacometrics & Systems Pharmacology, 2021)", "key": {"CYP3A [1]": {"system": "CYP3A", "conditions": "cited from earlier work"}, "CYP2C9 [2]": {"system": "CYP2C9", "test": "PBPK simulation of zanubrutinib as perpetrator, warfarin", "set-up": "species or system human"}, "CYP2C9 [3]": {"system": "CYP2C9", "conditions": "warfarin 10 mg with/without zanubrutinib; cited from earlier work"}, "CYP3A [4]": {"system": "CYP3A", "conditions": "midazolam 2 mg with/without zanubrutinib 160 mg b.i.d.; cited from earlier work"}, "CYP3A [5]": {"system": "CYP3A", "test": "PBPK simulation of zanubrutinib as perpetrator, midazolam", "set-up": "species or system human"}, "CYP2C19 [6]": {"system": "CYP2C19", "conditions": "omeprazole 20 mg with/without zanubrutinib; cited from earlier work"}, "CYP2C19 [7]": {"system": "CYP2C19", "test": "PBPK simulation of zanubrutinib as perpetrator, omeprazole", "set-up": "species or system human"}, "CYP3A [8]": {"system": "CYP3A", "conditions": "co-administration of itraconazole; cited from earlier work"}}, "data": [{"compound": "O=C1Nc2ccc(Cl)cc2[C@@](C#CC2CC2)(C(F)(F)F)O1", "note": "[Efavirenz]", "values": [{"measurement": "simulated ribociclib AUC ratio (with/without inducer)", "setting": "CYP3A [1]", "value": 0.40}]}, {"compound": "NC(=O)N1c2ccccc2C=Cc2ccccc21", "note": "[Carbamazepine]", "values": [{"measurement": "simulated ribociclib AUC ratio (with/without inducer)", "setting": "CYP3A [1]", "value": 0.48}]}, {"compound": "CC(=O)CC(c1ccccc1)c1c(O)c2ccccc2oc1=O", "note": "(stereo not drawn) [warfarin]", "values": [{"measurement": "warfarin AUC ratio observed/predicted", "setting": "CYP2C9 [2]", "value": 1.03}, {"measurement": "warfarin Cmax ratio observed/predicted", "setting": "CYP2C9 [2]", "value": 0.95}, {"measurement": "warfarin AUC ratio, observed (90% CI)", "setting": "CYP2C9 [3]", "value": "1.00 (0.98–1.03)"}, {"measurement": "warfarin Cmax ratio, observed (90% CI)", "setting": "CYP2C9 [3]", "value": "0.95 (0.87–1.04)"}]}, {"compound": "Cc1ncc2n1-c1ccc(Cl)cc1C(c1ccccc1F)=NC2", "note": "[midazolam, reference compound]", "values": [{"measurement": "midazolam AUC ratio, observed (90% CI)", "setting": "CYP3A [4]", "value": "0.53 (0.48–0.57)"}, {"measurement": "midazolam Cmax ratio, observed (90% CI)", "setting": "CYP3A [4]", "value": "0.70 (0.63–0.78)"}, {"measurement": "midazolam AUC ratio observed/predicted", "setting": "CYP3A [5]", "value": 1.02}]}, {"compound": "COc1ccc2[nH]c([S+]([O-])Cc3ncc(C)c(OC)c3C)nc2c1", "note": "(stereo not drawn) [omeprazole]", "values": [{"measurement": "omeprazole AUC ratio, observed (90% CI)", "setting": "CYP2C19 [6]", "value": "0.63 (0.5–0.70)"}, {"measurement": "omeprazole Cmax ratio, observed (90% CI)", "setting": "CYP2C19 [6]", "value": "0.79 (0.65–0.97)"}, {"measurement": "omeprazole AUC ratio observed/predicted", "setting": "CYP2C19 [7]", "value": 0.67}, {"measurement": "omeprazole Cmax ratio observed/predicted", "setting": "CYP2C19 [7]", "value": 0.81}]}, {"compound": "CCC(C)n1ncn(-c2ccc(N3CCN(c4ccc(OCC5COC(Cn6cncn6)(c6ccc(Cl)cc6Cl)O5)cc4)CC3)cc2)c1=O", "note": "(stereo not drawn) [itraconazole]", "values": [{"measurement": "increase of zanubrutinib AUC0-t", "setting": "CYP3A [8]", "value": 3.9, "unit": "fold"}, {"measurement": "increase of zanubrutinib Cmax", "setting": "CYP3A [8]", "value": 2.6, "unit": "fold"}]}]}
